Where no end group is shown, it is not given here.
System: Hey cells
Test: Nanogel/siGLO uptake by confocal microscopy, Hey cells
Format: cell-based
Conditions: Hey cells (high EphA2), 4 h incubation, serum-containing medium
Description: Cell transfection using nanogels. Hey or BG-1 cells were plated onto an 8-well chamber slide (5×10^3 cells/well), and the cells allowed to adhere overnight at 37° C. in a 5% CO2 atmosphere. After washing the wells with PBS and replacing the media, siGLO-loaded/YSA-conjugated nanogels, unloaded YSA-conjugated nanogels, pNIPMAm nanogels, or siGLO only were added to wells. Cells were incubated in each case for 4 h. In experiments where preincubation of ephrin-A1 was used to initiate internalization and degradation of EphA2, ephrin-A1 was added to the media at a final concentration of the ligand of 2 μg/mL. After incubation, the cells were washed with PBS, and the medium replaced. For fixation prior to confocal imaging, the cells were incubated with 2% (v/v) paraformaldehyde for 30 min
Confocal microscopy. A Zeiss LSM510 confocal microscope was used to take cell images. Cells were incubated with nanogels for 4 h. After 4 h, the cells were washed and then fixed on the slide. […]
Following loading with siGLO, nanogels were incubated with either Hey (high EphA2 expression) or BG-1 (low EphA2 expression) cells in order to compare the levels of targeted uptake by ovarian cancer cells. Uptake of the nanogels into the cells was followed using a fluorescent tag (AFA) incorporated into the nanogel core as well as by the fluorescence of the siGLO. […]

YSA-conjugated nanogels: core/shell pNIPMAm nanogels with YSA peptide coupled to shell amines via maleimide (EMCA) (YSAYPDSVPMMSC; also: coupled to nanogel shell amines via maleimide (EMCA))
nanogel uptake (green AFA fluorescence): strong green fluorescence

— patent publication US8361510B2, “Nanogels for cellular delivery of therapeutics” (Georgia Tech Research Corporation, priority 2008, dated 2013)
